In ChEMBL document CHEMBL1146050, “Depeptidization efforts on P3-P2' alpha-ketoamide inhibitors of HCV NS3-4A serine protease: effect on HCV replicon activity” (Bioorg Med Chem Lett, 2006):
Numbered stars: 1 amine (or outer) side, 2 acyl side, 3 side chain; on linkers, the order of the positions; unused ones are H or OH. Square brackets hold non-standard residues; d marks the D form. Peptide text beside a SMILES is read from it. * marks the point of attachment. NMeAla(cPr) = CN[C@@H](CC1CC1)C(=O)O; Isobutyloxycarbonyl = CC(C)COC(=O)*; X1 = O=C(C(=O)[*:2])C(CC1CC1)N[*:1]; Ala(cPr) = N[C@@H](CC1CC1)C(=O)O; Chg = N[C@H](C(=O)O)C1CCCCC1; Phg = N[C@H](C(=O)O)c1ccccc1

Key:
Hepatitis C virus = experiment: Inhibitory activity against HCV replicon; format: functional, Hepacivirus hominis
NS3 = NS3 (Hepatitis C virus, UniProt A3EZJ3); experiment: Inhibitory activity against HCV NS3 protease; parameters: species or system Hepacivirus hominis; details: read-out: Ki app
Sequence of NS3 (A3EZJ3 whole entry): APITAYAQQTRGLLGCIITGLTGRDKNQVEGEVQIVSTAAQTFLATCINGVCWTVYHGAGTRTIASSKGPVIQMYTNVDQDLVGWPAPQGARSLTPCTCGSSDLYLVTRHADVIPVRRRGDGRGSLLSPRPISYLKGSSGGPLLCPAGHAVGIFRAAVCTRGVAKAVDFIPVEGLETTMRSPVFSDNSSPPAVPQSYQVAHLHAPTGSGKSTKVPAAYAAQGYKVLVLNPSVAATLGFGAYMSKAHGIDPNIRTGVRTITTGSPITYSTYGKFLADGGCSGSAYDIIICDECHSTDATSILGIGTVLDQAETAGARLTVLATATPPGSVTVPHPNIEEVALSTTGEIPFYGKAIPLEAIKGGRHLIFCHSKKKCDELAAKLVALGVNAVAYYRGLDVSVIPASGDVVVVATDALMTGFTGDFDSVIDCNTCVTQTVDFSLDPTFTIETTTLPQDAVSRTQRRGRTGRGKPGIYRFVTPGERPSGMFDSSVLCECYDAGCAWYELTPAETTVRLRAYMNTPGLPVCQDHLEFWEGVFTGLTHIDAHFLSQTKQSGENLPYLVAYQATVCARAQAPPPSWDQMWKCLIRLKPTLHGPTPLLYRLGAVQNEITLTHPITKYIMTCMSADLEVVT

IC90 (Hepatitis C virus)	Ki (NS3)	Structure (SMILES)
> 5000 nM	2100 nM	CC(C)COC(=O)N[C@H](C(=O)CN(CC1CC1)C(=O)NC(CC1CC1)C(=O)C(=O)NCC(=O)N[C@H](C(=O)O)c1ccccc1)C1CCCCC1 (stereo partly specified)
> 5000 nM	10000 nM	CC(C)COC(=O)N[C@@H](C1CCCCC1)[C@@H](O)CN(CC1CC1)C(=O)NC(CC1CC1)C(=O)C(=O)NCC(=O)N[C@H](C(=O)O)c1ccccc1 (stereo partly specified)
> 5000 nM	230 nM	CC(C)COC(=O)N[C@H](C(=O)NN(CC1CC1)C(=O)NC(CC1CC1)C(=O)C(=O)NCC(=O)N[C@H](C(=O)O)c1ccccc1)C1CCCCC1 (stereo partly specified)
> 5000 nM	120 nM	CC(C)COC(=O)N[C@H](C(=O)N(C)[C@@H](CC1CC1)C(=O)NC(CC1CC1)C(=O)C(=O)NCC(=O)N[C@H](C(=O)O)c1ccccc1)C1CCCCC1 (stereo partly specified) (Isobutyloxycarbonyl-[Chg][NMeAla(cPr)][X1]G[Phg]-OH)
950 nM	60 nM	CC(C)COC(=O)N[C@H](C(=O)N(C)[C@@H](CC1CC1)C(=O)NC(CC1CC1)C(=O)C(=O)NCC(=O)N[C@H](C(=O)N(C)C)c1ccccc1)C1CCCCC1 (stereo partly specified) (Isobutyloxycarbonyl-[Chg][NMeAla(cPr)][X1]G[Phg]-NMe2)
> 5000 nM	15 nM	CC(C)COC(=O)N[C@H](C(=O)N[C@@H](CC1CC1)C(=O)NC(CC1CC1)C(=O)C(=O)NCC(=O)N[C@H](C(=O)O)c1ccccc1)C1CCCCC1 (stereo partly specified) (Isobutyloxycarbonyl-[Chg][Ala(cPr)][X1]G[Phg]-OH)
> 5000 nM	42000 nM	CC(C)COC(=O)N[C@@H](C1CCCCC1)[C@@H](O)CC(=O)N[C@@H](CC1CC1)C(=O)NC(CC1CC1)C(=O)C(=O)NCC(=O)N[C@H](C(=O)O)c1ccccc1 (stereo partly specified)
> 5000 nM	50 nM	CC(C)COC(=O)N[C@H](C(=O)N[C@@H](CC1CC1)C(=O)NC(CC1CC1)C(=O)C(=O)NCC(=O)N[C@H](C(=O)N(C)C)c1ccccc1)C1CCCCC1 (stereo partly specified) (Isobutyloxycarbonyl-[Chg][Ala(cPr)][X1]G[Phg]-NMe2)
